From US20240344145A1, “PHARMACOGENOMICS SCORE TO MAKE DECISIONS ON THERAPY AUGMENTATION IN AML” (University of Florida Research Foundation, Incorporated, priority 2021, published 2024)

Tested on: ara-C metabolic pathway genes
Assay: Association of ara-C pathway SNP genotypes with MRD1, EFS and OS in AML02 (logistic regression and Cox models; also within LDAC and HDAC arms)
Design: species or system human
Conditions: within arm of AML02
Source text: Genomic DNA from patients enrolled in the multi-site St. Jude AML02 trial was genotyped for 155 SNPs in 16 genes of relevance to ara-C pharmacology using sequenom iPlex platform that uses MALDI-TOF based chemistry at University of Minnesota, Biomedical Genomics Center. SNPs were selected based on previously reported studies. For SNPs lacking literature on genetic variation, SNPs were selected to capture LD blocks (European and African ancestry) on a gene. Of 155 SNPs, 1 SNP was excluded due to low call rate (<90%), 47 SNPs were excluded due to minimum allele frequency of less than 5%, 11 SNPs were excluded due to high LD (r^2>0.9) with other SNPs; two SNPs were excluded because of deviation from Hardy-Weinberg equilibrium. Genotype for the COG-AAML0531 cohort for the selected SNPs was obtained using sequenom platform or TaqMan genotyping assays, and for a few SNPs was extracted from the data available on Illumina 2.5 Omni array. Genotype calls from multiple platforms were confirmed across multiple samples randomly collected from the cohort.
SNP genotype groups in three different modes of inheritance (additive, dominant, and recessive) were tested for association with MRD1 using logistic regression models. Odds ratio (OR) and 95% confidence interval (CI) were calculated for each test. SNPs with association P-value<0.05 were considered significant. Cox-proportional hazard models were used to evaluate association of genotype groups with EFS or OS. Hazard ratio (HR) and 95% CI were calculated for each test. p-value<0.05 was considered statistically significant. Given initial risk group assignments are well-established prognostic factors associated with outcome, outcome association analysis of SNPs with and without adjusting for risk group was also performed to identify SNPs that are associated with outcome independent of risk group.
SNPs with p<0.15 in risk-adjusted univariate evaluation with clinical endpoints (MRD1, EFS, and OS) were tested for all possible combinations with a maximum of three SNPs per model in multivariable logistic regression models for association with MRD1 and Cox-proportional hazard models for association with EFS and OS. Analysis for up to 3 SNP combinations was restricted due to computational challenges as increasing the maximum number of SNPs per model drastically increases the number of models as 1000 permutations were run for each model. Models were ordered according to their Bayesian Information Criterion (BIC) and weight in favor of each model. One thousand permutation tests were performed for each model to determine statistical significance. The six unique SNPs from the most significant models for EFS and MRD1 were included in the development of the ACS10 score as described in the results section.
The multicenter AML02 clinical trial randomly assigned subjects to receive low dose ara-C (LDAC: 100 mg/m^2; n=91 patients) or high dose ara-C(HDAC: 3 g/m^2; n=75 patients) in combination with daunorubicin and etoposide as the first course of chemotherapy as described above in patient cohort section. Thus, the association of SNPs with outcome within each arm separately was also explored (Table 5).

[1] = rs4917384 (NT5C2, WT C, VAR T), MOI D
[2] = rs4980345 (SLC28A1, WT G, VAR A), MOI A
[3] = rs6552622 (DCTD, WT C, VAR G), MOI D
[4] = rs6742272 (RRM2, WT C, VAR G), MOI A
[5] = rs6834938 (DCTD, WT C, VAR T), MOI R
[6] = rs6946062 (NT5C3, WT T, VAR C), MOI D
[7] = rs7533657 (CTPS1, WT C, VAR T), MOI R
[8] = rs7543016 (CMPK1, WT C, VAR G), MOI R
[9] = rs7776847 (NT5C3, WT G, VAR A), MOI A
[10] = rs7874528 (SLC28A3, WT G, VAR T), MOI D
[11] = rs10252880 (NT5C3, WT G, VAR C), MOI A
[12] = rs10767827 (RRM1, WT G, VAR T), MOI D
[13] = rs10786736 (NT5C2, WT G, VAR C), MOI D
[14] = rs10916819 (CDA, WT A, VAR G), MOI D
[15] = rs11140525 (SLC28A3, WT G, VAR A), MOI A
[16] = rs11191558 (NT5C2, WT G, VAR A), MOI D
[17] = rs11737887 (DCTD, WT T, VAR C), MOI A
[18] = rs12554292 (SLC28A3, WT C, VAR T), MOI D
[19] = rs12806698 (RRM1, WT C, VAR A), MOI D
[20] = rs17103168 (CMPK1, WT A, VAR G), MOI D

## Nc1ccn([C@@H]2O[C@H](CO)[C@@H](O)[C@@H]2O)c(=O)n1 [HDAC, cytarabine]
[1]
  EFS HR (95% CI): 0.74 (0.51-1.08)
  MRD1 OR (95% CI): 0.73 (0.44-1.2)
  OS HR (95% CI): 0.61 (0.38-0.98)
[2]
  EFS HR (95% CI): 0.94 (0.47-1.87)
  MRD1 OR (95% CI): 0.55 (0.19-1.62)
  OS HR (95% CI): 1.3 (0.64-2.64)
[3]
  EFS HR (95% CI): 1.71 (1.15-2.53)
  MRD1 OR (95% CI): 1.06 (0.56-1.99)
  OS HR (95% CI): 1.84 (1.19-2.85)
[4]
  EFS HR (95% CI): 1.09 (0.68-1.76)
  MRD1 OR (95% CI): 0.86 (0.44-1.68)
  OS HR (95% CI): 1.09 (0.62-1.92)
[5]
  EFS HR (95% CI): 0.7 (0.34-1.44)
  MRD1 OR (95% CI): 1.08 (0.49-2.38)
  OS HR (95% CI): 0.86 (0.42-1.79)
[6]
  EFS HR (95% CI): 1.13 (0.78-1.63)
  MRD1 OR (95% CI): 0.96 (0.59-1.56)
  OS HR (95% CI): 1.47 (0.92-2.35)
[7]
  EFS HR (95% CI): 1.76 (1.14-2.7)
  MRD1 OR (95% CI): 1.31 (0.67-2.57)
  OS HR (95% CI): 1.97 (1.22-3.18)
[8]
  EFS HR (95% CI): 0.69 (0.38-1.25)
  MRD1 OR (95% CI): 1.29 (0.69-2.42)
  OS HR (95% CI): 0.65 (0.32-1.35)
[9]
  EFS HR (95% CI): 0.83 (0.46-1.5)
  MRD1 OR (95% CI): 1.23 (0.57-2.65)
  OS HR (95% CI): 0.71 (0.34-1.47)
[10]
  EFS HR (95% CI): 1.24 (0.85-1.81)
  MRD1 OR (95% CI): 0.91 (0.52-1.61)
  OS HR (95% CI): 1.41 (0.91-2.17)
[11]
  EFS HR (95% CI): 0.99 (0.62-1.57)
  MRD1 OR (95% CI): 1.18 (0.62-2.27)
  OS HR (95% CI): 0.74 (0.42-1.32)
[12]
  EFS HR (95% CI): 1.03 (0.71-1.49)
  MRD1 OR (95% CI): 0.55 (0.31-0.97)
  OS HR (95% CI): 1.04 (0.68-1.61)
[13]
  EFS HR (95% CI): 0.92 (0.6-1.4)
  MRD1 OR (95% CI): 0.9 (0.51-1.59)
  OS HR (95% CI): 0.92 (0.56-1.52)
[14]
  EFS HR (95% CI): 1.08 (0.75-1.56)
  MRD1 OR (95% CI): 1.87 (1.09-3.21)
  OS HR (95% CI): 1.33 (0.83-2.12)
[15]
  EFS HR (95% CI): 0.73 (0.44-1.21)
  MRD1 OR (95% CI): 0.44 (0.21-0.94)
  OS HR (95% CI): 0.87 (0.49-1.56)
[16]
  EFS HR (95% CI): 0.87 (0.56-1.37)
  MRD1 OR (95% CI): 0.93 (0.53-1.66)
  OS HR (95% CI): 0.84 (0.48-1.44)
[17]
  EFS HR (95% CI): 0.96 (0.49-1.89)
  MRD1 OR (95% CI): 2.74 (1.06-7.06)
  OS HR (95% CI): 0.95 (0.43-2.12)
[18]
  EFS HR (95% CI): 1.15 (0.75-1.76)
  MRD1 OR (95% CI): 1.92 (1.04-3.56)
  OS HR (95% CI): 1.4 (0.87-2.24)
[19]
  EFS HR (95% CI): 0.64 (0.43-0.96)
  MRD1 OR (95% CI): 0.89 (0.54-1.45)
  OS HR (95% CI): 0.62 (0.37-1.02)
[20]
  EFS HR (95% CI): 1.05 (0.73-1.51)
  MRD1 OR (95% CI): 0.62 (0.37-1.04)
  OS HR (95% CI): 0.9 (0.58-1.41)
